Molecules are shown by their SMILES.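 These data come from cells grown in 96-well plates and exposed to compound for 48 hours at five concentrations. At the GI50, growth is halved.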 Calls of active or inactive are those of the source. Cut-off read from the data, not from the text of the source: active = GI50 up to about 1.1 µM and inactive = higher. Some results are limits rather than exact numbers.

What all share (test): growth of human tumour cells (NCI), 48 h
Test [1] has as its system CAKI-1.
The test system of test [2] is DMS-114.
Test [3] relates to EKVX.
For test [4], the system named is HCC 2998.
Test [5] relates to HCT-15.
Test [6] relates to HOP-62.
The subject of test [7] is HOP-92.
In test [8] the test system is LOX IMVI.
Test [9] relates to M14.
The test system of test [10] is MOLT-4.
Test [11] concerns Malme-3M.
Test [12] relates to NCI-H226.
The subject of test [13] is NCI-H522.
For test [14], the system named is RPMI-8226.
Test [15] deals with SK-MEL-2.
Test [16] has as its system SNB-75.
Test [17] relates to TK-10.
The test system of test [18] is UACC-257.
Test [19] concerns UACC-62.

On to `COC1=C(C)C(=O)c2c(cc3c(c2O)C(C)(CCC=C(C)C)C(C)O3)C1=O` (stereo unspecified), for which the GI50 was > 100 µM (inactive) in test [1]; > 100 µM (inactive) in [2]; > 100 µM (inactive) in [3]; 42.1 µM (inactive) in [4]; 27.4 µM in test [5]; 18.2 µM (inactive) in test [6]. For the same compound, the GI50 was > 100 µM (inactive) in test [7]; 18.2 µM (inactive) in [8]; 23.4 µM (inactive) in [9]; > 100 µM (inactive) in test [10]; > 76.4 µM (inactive) in test [11]; 17.6 µM (inactive) in test [12]. The GI50 in test [13] was > 100 µM (inactive); in test [14] it was > 100 µM (inactive); in test [15] it was 30.2 µM (inactive); in test [16], 19.9 µM (inactive); in [17] it was > 100 µM (inactive); in test [18] it was > 72.9 µM (inactive). The GI50 in [19] was 22.3 µM (inactive).
As for `N=C(c1ccccc1)N1CCCCC1`, the GI50 is > 100 µM (inactive) in test [1]; > 100 µM (inactive) in test [2]; > 100 µM (inactive) in [3]; > 100 µM (inactive) in test [4]; > 100 µM (inactive) in test [6]; < 0.01 µM (active) in test [7]. Besides, the GI50 in test [8] was > 100 µM (inactive); in test [9] it was > 100 µM (inactive); in test [11], 49 µM (inactive); in [12], > 100 µM (inactive); in [13] it was > 100 µM (inactive); in [15], > 100 µM (inactive). The GI50 in [16], in test [17] and in [18] was > 100 µM (inactive) throughout.
For `CCCCCC/C=C1\CCC(CN2CCCC2)C1=O` (stereo unspecified), the GI50 in test [1] was > 38.5 µM (inactive); in test [2], 13.8 µM (inactive); in [3], 18.5 µM (inactive); in [4] it was 17.5 µM (inactive); in test [5] it was 9.16 µM; in test [6], 18.7 µM (inactive). Moreover, the GI50 was 16.7 µM (inactive) in [7]; 8.3 µM (inactive) in test [8]; 18.6 µM (inactive) in [9]; 3.76 µM (inactive) in test [10]; 19.2 µM (inactive) in [11]; 19.1 µM (inactive) in [12]. Also, the GI50 was 1.56 µM (inactive) in test [13]; 2.01 µM (inactive) in test [14]; 15.8 µM (inactive) in test [15]; 20.9 µM (inactive) in test [16]; 6.56 µM (inactive) in test [17]; 17.9 µM (inactive) in [18]. For the same compound, the GI50 in [19] is 18.2 µM (inactive).
In the case of `O=C1c2c(c3c4ccccc4[nH]c3c3[nH]c4ccccc4c23)C(=O)N1Cc1ccccc1`, the GI50 in [1] was 3.65 µM (inactive); in [2] it was 2.82 µM (inactive); in [3], 5.93 µM (inactive); in [4] it was 4.27 µM (inactive); in test [5] it was 2.06 µM; in [6] it was 3.95 µM (inactive). The GI50 was 2.43 µM (inactive) in test [7]; 2.44 µM (inactive) in [8]; 3.31 µM (inactive) in test [9]; 2.14 µM (inactive) in test [10]; 3.54 µM (inactive) in test [11]; 2.1 µM (inactive) in [12]. Further, the GI50 in test [13] is 1.77 µM (inactive); in test [14], 2.36 µM (inactive); in test [15] it was 3.2 µM (inactive); in test [16] it was 3.09 µM (inactive); in [17], 4.25 µM (inactive); in test [18], 3.75 µM (inactive). In addition, in [19], the GI50 is 4.25 µM (inactive).
As for `CN(C)c1nnnn1-c1c(N)n(C)c(=O)n(C)c1=O`, the GI50 in [1] was > 100 µM (inactive); in [2] it was > 100 µM (inactive); in test [3], > 100 µM (inactive); in test [4] it was > 100 µM (inactive); in test [5], greater than 100 µM; in test [6] it was > 100 µM (inactive). The GI50 in [7], in [8], in test [10], in test [11], in test [12] and in test [13] was > 100 µM (inactive) in each case. The GI50 in [14], in [15], in test [16], in test [17], in test [18] and in test [19] was > 100 µM (inactive) throughout.
As to `CN(C)c1ccc(/C=C(\C#N)C(=O)c2ccccc2)cc1Br`, the GI50 was > 100 µM (inactive) in [1]; > 100 µM (inactive) in [2]; > 100 µM (inactive) in test [3]; > 100 µM (inactive) in [4]; 20.8 µM (inactive) in test [6]; > 100 µM (inactive) in test [7]. Moreover, the GI50 in test [8] was 25.5 µM (inactive); in [9], > 100 µM (inactive); in test [10] it was 36.2 µM (inactive); in test [11] it was > 100 µM (inactive); in [12], 39.3 µM (inactive); in [13], > 100 µM (inactive). For the same compound, the GI50 is 25.8 µM (inactive) in [14]; > 100 µM (inactive) in test [15]; 41.8 µM (inactive) in test [16]; > 100 µM (inactive) in test [17]; > 100 µM (inactive) in test [18]; 51.3 µM (inactive) in test [19].
Regarding `COC(=O)C(=O)C(C(=O)C=C(C)C)C(=O)C(=O)Nc1ccc(Cl)cc1C` (stereo unspecified), the GI50 in [1] was > 100 µM (inactive); in [2], 92 µM (inactive); in test [3], > 100 µM (inactive); in [4], > 100 µM (inactive); in test [5] it was greater than 100 µM; in test [6], > 100 µM (inactive). Further, the GI50 in [7], in test [8], in [9], in test [10], in test [11] and in test [12] was > 100 µM (inactive) throughout. Besides, the GI50 is 69.2 µM (inactive) in test [13]; 70 µM (inactive) in test [14]; > 100 µM (inactive) in [15]; > 100 µM (inactive) in test [16]; > 100 µM (inactive) in test [17]; > 100 µM (inactive) in test [18]. The GI50 in [19] was > 100 µM (inactive).
For `C/C=C(/CCC1NCCC2c3ccccc3NC12)[Si](C)(C)C` (stereo unspecified), the GI50 in test [1] was 10.8 µM (inactive); in [2], 4.53 µM (inactive); in [3] it was 14.4 µM (inactive); in test [4], 2.02 µM (inactive); in test [5], 12.4 µM; in test [6], 15.2 µM (inactive). Moreover, the GI50 in test [7] was 5.58 µM (inactive); in [8] it was 7.31 µM (inactive); in [9] it was 3.66 µM (inactive); in test [10], 3.17 µM (inactive); in [12], 13.3 µM (inactive); in [13] it was 16 µM (inactive). Further, the GI50 in [14] was 2.84 µM (inactive); in test [15], 13.8 µM (inactive); in test [16], 9.73 µM (inactive); in test [17], 15 µM (inactive); in test [18], 4.38 µM (inactive); in test [19] it was 13.5 µM (inactive).
Turning to `COc1cc(Nc2cnc3ccc(N)cc3n2)cc(OC)c1OC`, the GI50 in test [1] is 59.2 µM (inactive); in [2] it was 79.3 µM (inactive); in test [3], > 100 µM (inactive); in [4], > 100 µM (inactive); in [5], 69.2 µM; in test [6], 29.2 µM (inactive). Moreover, the GI50 was 61.2 µM (inactive) in test [7]; 36.6 µM (inactive) in test [8]; > 100 µM (inactive) in test [9]; 49 µM (inactive) in [10]; > 65.2 µM (inactive) in test [11]; > 100 µM (inactive) in test [12]. The GI50 is 50.1 µM (inactive) in test [13]; 16.6 µM (inactive) in test [14]; > 100 µM (inactive) in test [15]; 49.3 µM (inactive) in test [16]; > 83.6 µM (inactive) in [17]; > 57 µM (inactive) in [18]. Moreover, the GI50 in [19] was 69.3 µM (inactive).
For `O=C(CCN1CCCCC1CCO)Nc1ccc2c(c1)C(=O)c1ccc(NC(=O)CCN3CCCCC3CCO)cc1C2=O` (stereo unspecified), the GI50 in [1] is 23.7 µM (inactive); in test [2] it was 4.08 µM (inactive); in [3], 7.41 µM (inactive); in test [4], 0.0418 µM (active); in test [5], 11.2 µM; in test [6], 4.35 µM (inactive). Moreover, the GI50 is 13.2 µM (inactive) in test [7]; 2.99 µM (inactive) in test [8]; 4.25 µM (inactive) in test [10]; 2.64 µM (inactive) in test [11]; 5.71 µM (inactive) in test [12]; 2.16 µM (inactive) in [13]. The GI50 in test [14] is 4.45 µM (inactive); in test [15], 2.49 µM (inactive); in [16], 2.81 µM (inactive); in test [17], 3.1 µM (inactive); in test [18] it was 5.33 µM (inactive); in test [19] it was 2.44 µM (inactive).
As to `O=C1[C@H]2ON(c3ccccc3)C(c3ccccc3Cl)[C@H]2C(=O)N1c1ccc(Cc2ccc(N3C(=O)[C@@H]4ON(c5ccccc5)C(c5ccccc5Cl)[C@@H]4C3=O)cc2)cc1` (stereo partly specified), the GI50 in [1] is > 100 µM (inactive); in test [2], > 100 µM (inactive); in test [3] it was > 100 µM (inactive); in test [4], > 100 µM (inactive); in [5], greater than 100 µM; in [6], > 100 µM (inactive). In addition, the GI50 was 71 µM (inactive) in [7]; > 100 µM (inactive) in test [8]; 21.7 µM (inactive) in test [9]; > 100 µM (inactive) in test [10]; > 100 µM (inactive) in test [11]; > 100 µM (inactive) in test [12]. The GI50 in test [13], in test [14], in [15], in test [16], in test [17] and in test [18] was > 100 µM (inactive) in each case. The GI50 in test [19] is > 100 µM (inactive).
